Experimental findings from patent US4145554A, “3-Nitropyrazole derivatives” (Eli Lilly and Company, priority 1977, dated 1979) are described below.

In general, MIC refers to the least concentration at which growth counts as inhibited.

The structures appear in SMILES notation. Converted amounts (≈) assume the structure as drawn. Like-named read-outs stand apart in the source and are kept apart here. Some results are limits rather than exact numbers.

One experiment relates to Escherichia coli. In words: in vitro tube dilution test (MIC). The format is cell-based. To be noted: tube dilution, read-out: MIC. The procedure, abridged: (§1)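 Standard tube dilution test; MIC reported as micrograms of compound per milliliter.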
The next experiment concerns Mycoplasma gallisepticum. The experiment can be described thus: in vitro tube dilution test (MIC). To be noted: Mycoplasmoides gallisepticum; Mycoplasma gallisepticum, tube dilution; read-out: MIC. Format: cell-based. The procedure, abridged:
as §1

The next experiment concerns large crabgrass. In words: herbicidal activity, application to plants. The format is in vivo. To be noted: applied to foliage of growing plant at 1 lb./acre. The source says:
The herbicidal compounds of our invention have shown the ability to control undesired plants at levels as low as 1 lb./acre. Herbicidal activity is obtained when the 3-nitropyrazole herbicide is applied to the plants to be controlled in the conventional manner, by direct application as a spray or dry formulation to the plant or its supporting soil.

In another experiment the test system is Salmonella dublin. The experiment can be described thus: in vitro tube dilution test (MIC). The format is cell-based. To be noted: Salmonella enterica; Salmonella dublin, tube dilution; read-out: MIC.
Experiment [1] has as its system Staphylococcus aureus sp. 1130. In words: in vitro tube dilution test (MIC). Format: cell-based. To be noted: read-out: MIC.
The next experiment relates to Vibrio coli 3811. The experiment can be described thus: in vitro tube dilution test (MIC). To be noted: Campylobacter coli; Vibrio coli 3811, tube dilution; read-out: MIC. Format: cell-based.
The test system of a further experiment is Streptococcus sp. 80. The experiment can be described thus: in vitro tube dilution test (MIC). Format: cell-based. To be noted: Streptococcus sp. 80, tube dilution; read-out: MIC. The source says:
Other compounds of our invention have also been tested in the tube dilution test and shown to have in vitro activity against a number of microorganisms. The table below reports tests of a number of exemplary compounds against exemplary microorganisms. The compounds are identified by their numbers in the listing above. The data are reported as the MIC in micrograms per milliliter against the named exemplary microorganisms.

The subject of another experiment is Pasteurella multocida. The experiment can be described thus: in vitro tube dilution test (MIC). Format: cell-based. To be noted: tube dilution, read-out: MIC. In a few lines:
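Standard tube dilution test; MIC is the lowest compound concentration controlling growth, given in μg/mL.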

The subject of experiment [2] is Trypanosoma cruzi (BHC/10 strain). In words: use against Trypanosoma cruzi in rodents. To be noted: 12.5 mg./kg. for 10 days. The format is in vivo. The method, then:
Some 3-nitropyrazoles have been used against Trypanosoma cruzi in rodents. The 3-nitro-1-vinyl-4-pyrazolecarboxamide killed 91 percent of T. cruzi of the BHC/10 strain when administered at 12.5 mg./kg. for 10 days.

Another experiment has as its system avian E. coli. In words: Colibacillosis in chickens, medicated feed. The format is in vivo.
For the next experiment, the system named is Erwinia amylovora. The experiment can be described thus: Fire blight of pear, in vivo greenhouse test. The method, then:
An in vivo test was conducted against the fire blight organism, Erwinia amylovora. Plants infected with E. amylovora were sprayed with aqueous dispersions containing 100 ppm. and 500 ppm. of the test compounds. […] The compounds are identified below by their compound numbers in the above listing.

The subject of another experiment is S. typhimurium. The experiment can be described thus: Salmonella typhimurium in chickens, medicated feed. Format: in vivo, chicks. To be noted: 200 gm./ton feed; for Avg. Wt.: surviving chicks.
A further experiment deals with H. meleagridis. In words: Blackhead in poultry, turkeys. Format: in vivo. As for the experimental part: One- to three-week-old chicks and turkey poults were obtained from homogeneous source flocks and allocated into treatment groups. Some groups were held as infected, untreated controls, and other groups were treated with 3-nitropyrazoles by administering the compounds in the birds' feed. Various concentrations of the pyrazoles were administered to determine the least concentration which protected the birds. A few days after the administration of medicated feed began, all of the birds were challenged by rectally administering a suspension of at least 5,000 H. meleagridis protozoa per chick. The challenge organisms had been originally obtained from infected chickens, and were grown in vitro to provide a supply of organisms for testing.
The birds were held for about seven days after the challenge was administered, during which time the administration of pyrazole-medicated feed was continued. Then all of the chicks, including the untreated, infected controls, were sacrificed and necropsied. The cecum and the liver of each bird were examined for characteristic H. meleagridis lesions.
For each compound, the lowest feed concentration which gave an active response is indicated. While feed consumption data were not taken during the tests, the birds ate at such a rate that a feed concentration of 0.02 percent is equivalent to a treatment rate of about 10 mg./kg./day.

For the next experiment, the system named is Mycoplasma hyorhinis. The experiment can be described thus: in vitro tube dilution test (MIC). The format is cell-based. From the text:
(§2) Our compound, 1-(2-hydroxyethyl)-3-nitro-4-pyrazolecarboxamide, has been extensively tested in vitro to determine the range of microorganisms against which it is active. The table of data below reports the minimum inhibitory concentration (MIC) at which the compound is effective in controlling a variety of microorganisms in a standard tube dilution test system. The MIC is reported as micrograms of compound per milliliter.
(§3) The other preferred compounds of our invention have also been thoroughly tested in the in vitro tube dilution test.

The subject of experiment [3] is Salmonella typhimurium 1335. The experiment can be described thus: in vitro tube dilution test (MIC). Format: cell-based. To be noted: Salmonella enterica; Salmonella typhimurium 1335, tube dilution.
Description: as §2, §3

For the next experiment, the system named is Pseudomonas sp. In words: in vitro tube dilution test (MIC). The format is cell-based.
Description: as §2, §3

In experiment [4] the test system is Salmonella heidelburg 1593. The experiment can be described thus: in vitro tube dilution test (MIC). The format is cell-based. To be noted: Salmonella heidelburg 1593, tube dilution.
Description: as §2, §3

A further experiment relates to Salmonella pullorum Ill. In words: in vitro tube dilution test (MIC). Format: cell-based. To be noted: Salmonella enterica.
Description: as §2, §3

The subject of a further experiment is Escherichia coli 0127. In words: in vitro tube dilution test (MIC). The format is cell-based. To be noted: Escherichia coli 0127, tube dilution.
Description: as §3

Experiment [5] concerns Staphylococcus aureus 3055. The experiment can be described thus: in vitro tube dilution test (MIC). Format: cell-based. To be noted: Staphylococcus aureus 3055, tube dilution.
Description: as §3

The test system of experiment [6] is Mycoplasma gallisepticum 38502. In words: in vitro tube dilution test (MIC). The format is cell-based. To be noted: Mycoplasmoides gallisepticum; Mycoplasma gallisepticum 38502, tube dilution.
Description: as §3

The next experiment relates to Salmonella typhimurium. The experiment can be described thus: Salmonellosis in chickens, single injection to day-old chicks. Format: in vivo. To be noted: Salmonella enterica, TYPHIMURIUM, 168 h; single injection of 60 mg./kg.; seven days; read-out: Survival (converted). The procedure, abridged: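 Five day-old chicks per group received one injection of compound at 60 mg./kg., then were challenged next day by subcutaneous S. typhimurium at a dose lethal to most or all untreated controls. Read-out is survivor count, pooled over repeat groups, with untreated challenged controls run in each batch.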

The mark [7] stands for this setting: Staphylococcus aureus sp. 1130, tube dilution.
Setting [8] is: 100 gm./ton, further test, about 5 weeks of age.
Where [9] appears, read: 200 gm./ton, further test, about 5 weeks of age.
Setting [10] is: 300 gm./ton feed, about 5 weeks old, 10^-2 dilution challenge, first test.

For `CCn1cc(C#N)c([N+](=O)[O-])n1` [Compound 1, 1-ethyl-3-nitro-4-pyrazolecarbonitrile], the MIC in the experiment with Escherichia coli is 100 µg/mL (≈ 602 µM); with Mycoplasma gallisepticum, over 50 µg/mL; with Salmonella dublin, 100 µg/mL (≈ 602 µM); in [1] (setting [7]) it was 100 µg/mL (≈ 602 µM); in the experiment with Vibrio coli 3811, 12.5 µg/mL (≈ 75.2 µM); in the experiment with Streptococcus sp. 80, 100 µg/mL (≈ 602 µM). Moreover, in the experiment on large crabgrass, the “control of large crabgrass” value is on record as “kills large crabgrass”.

Take `C=Cn1cc(C(N)=O)c([N+](=O)[O-])n1` [Compound 81, 3-nitro-1-vinyl-4-pyrazolecarboxamide]: the MIC in the experiment on Pasteurella multocida was 1.56 µg/mL (≈ 8.56 µM); in the experiment on Escherichia coli, 1.56 µg/mL (≈ 8.56 µM); with Mycoplasma gallisepticum it was 1.56 µg/mL (≈ 8.56 µM); in the experiment on Salmonella dublin it was 1.56 µg/mL (≈ 8.56 µM); in experiment [1] (setting [7]) it was 1.56 µg/mL (≈ 8.56 µM); in the experiment on Vibrio coli 3811, 25 µg/mL (≈ 137 µM). For the same compound, in the experiment with Streptococcus sp. 80, the MIC came to 25 µg/mL (≈ 137 µM). Moreover, the “percent of T. cruzi killed” value in [2] came to 91%. In addition, the “Avg. Wt.” value is reported as 1109 gm with avian E. coli (setting [8]) and 918 gm with avian E. coli (setting [9]). Further, the “E. coli Lesions” value was 23/40 in the experiment on avian E. coli (setting [8]) and 20/40 in the experiment on avian E. coli (setting [9]). The Mortality in the experiment on avian E. coli (setting [8]) is given as 5/40; in the experiment with avian E. coli (setting [9]) it was 6/40. The “Percent Control of fire blight” value in the experiment on Erwinia amylovora (100 ppm.) is listed as 100%; with Erwinia amylovora (500 ppm.), 60%.

With `C=CCn1cc(C(N)=O)c([N+](=O)[O-])n1` [Compound 16, 1-allyl-3-nitro-4-pyrazolecarboxamide], the Survival in the experiment with S. typhimurium (Test B) is given as 26/36; with S. typhimurium (Test C), 25/48. In addition, the “Avg. Wt.” value in the experiment with S. typhimurium (Test B) was 88 gm; in the experiment on S. typhimurium (Test C), 64 gm; in the experiment on avian E. coli (setting [8]), 1112 gm; in the experiment on avian E. coli (setting [9]), 1266 gm. In addition, the “Active Level (lowest feed concentration which gave an active response)” value in the experiment on H. meleagridis is reported as “.02%”. Moreover, the MIC against Mycoplasma hyorhinis was 50 µg/mL (≈ 255 µM); in experiment [3], 6.25 µg/mL (≈ 31.9 µM); in the experiment on Pseudomonas sp., 12.5 µg/mL (≈ 63.7 µM); in experiment [4] it was 25 µg/mL (≈ 127 µM); against Salmonella pullorum Ill. it was under 1.56 µg/mL; in the experiment with Escherichia coli 0127, 100 µg/mL (≈ 510 µM). The MIC in experiment [5] came to 10 µg/mL (≈ 51 µM); in experiment [6], 50 µg/mL (≈ 255 µM); in the experiment with Salmonella dublin, 6.25 µg/mL (≈ 31.9 µM); in experiment [1] (Staphylococcus aureus, SP.1130, Staphyloccocus 1130, tube dilution), 6.25 µg/mL (≈ 31.9 µM); in the experiment on Vibrio coli 3811, 3.12 µg/mL (≈ 15.9 µM). Moreover, the responders at 60 mg/kg with Salmonella typhimurium is 100%. The “E. coli Lesions” value in the experiment on avian E. coli (setting [8]) was 40/40; in the experiment with avian E. coli (setting [9]) it was 31/40; in the experiment with avian E. coli (setting [10]), 16/30. For the same compound, the Mortality is 16/40 in the experiment on avian E. coli (setting [8]), 11/40 in the experiment on avian E. coli (setting [9]) and 0/30 in the experiment with avian E. coli (setting [10]). In addition, the Wt. in the experiment on avian E. coli (setting [10]) stood at 1090 gm. In addition, the “Percent Control of fire blight” value in the experiment on Erwinia amylovora (100 ppm.) was 100%; in the experiment with Erwinia amylovora (500 ppm.), 60%.
